Peptide text beside a SMILES is read from it.
Legend:
[1] = system: S. meliloti cells; assay: Membrane potential, DiOC2(3) red/green fluorescence (BacLight kit); format: cell-based, Sinorhizobium meliloti; details: BacLight Bacterial Membrane Potential Kit
Source text: For the measurements, the BacLight™ Bacterial Membrane Potential Kit (Thermo Fisher Scientific) was used according to the instructions of the manufacturer.

[2] = system: rhizobia (Sinorhizobium meliloti); assay: Killing assay in phosphate buffer (number of living cells); format: cell-based; details: 50 µg/ml peptide in phosphate buffer for three hours
Protocol: (§1) In this study, we investigated how NCR247 and NCR335 affect the cell surface as well as the outer and inner membranes (OM and IM respectively) of the α-Proteobacterium S. meliloti, the natural target of the peptides. We compared the effect of these NCR peptides to that of Polymyxin B (PMB), which alters bacterial outer membrane permeability and then disrupts the cytoplasmic membrane of gram-negative bacteria. […] NCR247 and NCR335 inhibited the growth of rhizobia at 25 and 12 µg/ml (Minimal Inhibitory Concentration), respectively, in broth microdilution assays, and were able to decrease the number of living cells by two and four orders of magnitude, respectively, when they were used at 50 µg/ml concentration in phosphate buffer for three hours. In other—including clinically relevant—bacteria, the minimal bactericid concentration of the peptides varied between 20 and 125 µg/ml (Additional file 1). […] Prolonging the treatment for 3 h caused no further changes, cells treated for 1 and 3 h were alike. These observations were in line with reported surface corrugation of the E. coli cell envelope by NCR247 [18]. Similar study on the NCR335 treated S. meliloti cultures could not be performed as the bacteria lost their attachment to the poly-L-lysine coated muscovite mica surface.

[3] = system: S. meliloti cells; assay: Atomic force microscopy of immobilized cells; format: cell-based, Sinorhizobium meliloti
Source text: Details of the measurements and sample preparations are described in Reference 18.
Nagy K, Mikulass KR, Vegh AG, Kereszt A, Kondorosi E, Varo G, Szegletes Z: Interaction of cysteine-rich cationic antimicrobial peptides with intact bacteria and model membranes. Gen Physiol Biophys 2015, 34(2):135-144

[4] = system: S. meliloti outer membrane; assay: Outer membrane permeability, NPN fluorescence; format: cell-based, Sinorhizobium meliloti; details: for outer membrane permeabilization (NPN fluorescence): peptides tested at 50, 25, 12.5 and 6.25 µg/ml, 5 mM HEPES pH 7.2, 50 µg/ml = NCR335 6.4 µM, NCR247 16.6 µM, NCR001 9.5 µM, PMB 36 µM
Protocol: The cells from exponentially growing cultures were collected, washed and suspended in 5 mM HEPES buffer (pH=7.2). 80 µl NPN of 25 µM concentration and 100 µl of bacterial suspension (OD600=0.1) were pipetted into the wells of a black 96-well microtiter plate and the fluorescence were measured for 3 cycles (9 seconds/cycle) in a FLUOstar OPTIMA plate-reader (BMG Labtech). After the three cycles, 20 µl of peptide was added and the fluorescence were measured for an additional 18 cycles.

[5] = system: Escherichia coli cells; details: cited from earlier work
Source text: (§2) Extremely rich sources of AMPs are the plants where up to several hundreds of peptide-coding genes can be expressed in specific organs constitutively or induced locally or systematically by the attack of pathogenic microbes. […] In Medicago truncatula nodule cells infected with Sinorhizobium meliloti, hundreds ...

[6] = system: fungi; details: cited from earlier work
Source text: as §2

[7] = system: gram-negative and gram-positive bacteria; details: cited from earlier work
Source text: as §2

[8] = system: rhizobia (Sinorhizobium meliloti); assay: Broth microdilution assay (Minimal Inhibitory Concentration); format: cell-based; details: growth inhibition of rhizobia
Protocol: as §1

[9] = system: Sinorhizobium meliloti AK631; assay: Minimal bactericid concentration (MBC); format: cell-based
[10] = system: Escherichia coli K12; assay: Minimal bactericid concentration (MBC); format: cell-based
[11] = system: Salmonella typhimurium; assay: Minimal bactericid concentration (MBC); format: cell-based
[12] = system: Pseudomonas aeruginosa; assay: Minimal bactericid concentration (MBC); format: cell-based
[13] = system: Lactobacillus plantarum; assay: Minimal bactericid concentration (MBC); format: cell-based
[14] = system: Listeria monocytogenes; assay: Minimal bactericid concentration (MBC); format: cell-based
[15] = system: Staphylococcus aureus; assay: Minimal bactericid concentration (MBC); format: cell-based

| Compound | effect on membrane potential (DiOC2(3) red/green fluorescence ratio) [1] | decrease of the number of living cells [2] | average height of bacteria (AFM) ([3]; 25 µg/ml, average height ~600 nm) | cell surface roughness / surface alterations (AFM) ([3]; treatment for 1 h, 3 h caused no further changes) | outer membrane damage (NPN fluorescence) ([4]; 25 µg/ml, compared with 50 µg/ml) | outer membrane damage (NPN fluorescence) ([4]; 50 µg/ml) | outer membrane damage (NPN fluorescence) ([4]; concentrations lower than 25 µg/ml) | surface roughness of treated Escherichia coli cells (AFM) [5] | antimicrobial activity against fungi [6] | antimicrobial activity against gram-negative and gram-positive bacteria [7] | Minimal Inhibitory Concentration [8] [µg/mL] | MBC [9] [µg/mL] | MBC [10] [µg/mL] | MBC [11] [µg/mL] | MBC [12] [µg/mL] | MBC [13] [µg/mL] | MBC [14] [µg/mL] | MBC [15] [µg/mL] | outer membrane permeabilization (NPN fluorescence) [4] |
| --- | --- | --- | --- | --- | --- | --- | --- | --- | --- | --- | --- | --- | --- | --- | --- | --- | --- | --- | --- |
| N#CC(C#N)=NNc1cccc(Cl)c1 [CCCP, carbonyl cyanide m-chlorophenyl hydrazone, reference compound] | loss of membrane potential |  |  |  |  |  |  |  |  |  |  |  |  |  |  |  |  |  |  |
| CC[C@H](C)[C@H](NC(=O)[C@H](CS)NC(=O)CNC(=O)[C@H](CC(N)=O)NC(=O)[C@@H](N)CCCNC(=N)N)C(=O)N[C@H](C(=O)N[C@@H](CC(=O)O)C(=O)N1CCC[C@H]1C(=O)N[C@@H](CCCNC(=N)N)C(=O)N[C@@H](CS)C(=O)N1CCC[C@H]1C(=O)N[C@@H](Cc1ccc(O)cc1)C(=O)N[C@@H](CCC(N)=O)C(=O)N[C@@H](CCC(N)=O)C(=O)N[C@@H](CS)C(=O)N[C@@H](CCCNC(=N)N)C(=O)N[C@@H](CCCNC(=N)N)C(=O)N1CCC[C@H]1C(=O)N[C@@H](CC(C)C)C(=O)N[C@@H](Cc1ccc(O)cc1)C(=O)N[C@@H](CS)C(=O)N[C@@H](CCCNC(=N)N)C(=O)N[C@@H](CCCNC(=N)N)C(=O)N[C@@H](CCCNC(=N)N)C(=O)O)C(C)C [NCR247] (H-RNGCIVDPRCPYQQCRRPLYCRRR-OH; C-terminus assumed) | loss of membrane potential | two | no change in the average height | increased the surface roughness | even weaker | only a mild damage | no effect | increased surface roughness | effective | effective |  |  |  |  |  |  |  |  |  |
| H-RLNTTFRPLNFKMLRFWGQNRNIMKHRGQKVHFSLILSDCKTNKDCPKLRRANVRCRKSYCVPI [NCR335, cationic nodule-specific cysteine-rich peptide of Medicago truncatula, chemically synthetized, pI 11.22] | loss of membrane potential | four |  |  |  |  |  | increased surface roughness | effective | effective | 12 | 50 | 50 | 50 | 70 | 30 | 20 | 30 | equally efficient at 50, 25 and 12.5 µg/ml but provoked a weaker OM permeabilization than PMB |
| Polymyxin B [PMB, reference compound] | loss of membrane potential |  |  |  |  |  |  |  |  |  |  |  |  |  |  |  |  |  | most pronounced effect |
